From the supplement of paper PMC10307832

Experiments:
Assay in all cases: relative viability (nuclei count vs DMSO), 5 days (fraction); higher = more cells survive
[1] = test system: NCI-H2085
Outline: (§1)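 One day after seeding in 1536-well plates, lung cancer cell lines were dosed by pin tool. Dosing was either single-drug or a fixed anchor-drug dose plus five library-drug doses (not always all listed) in √10 steps. After 5 days, nuclei were stained in one fix-and-stain step and counted on 4× images, and relative viability is the nuclei count of treated wells over that of vehicle wells, given as the median of duplicate plates.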

[2] = test system: NCI-H1792
Outline: as §1

[3] = test system: NCI-H1666
Outline: as §1

[4] = test system: NCI-H1944
Outline: as §1

[5] = test system: LC-2-ad
Outline: as §1

[6] = test system: NCI-H460
Outline: as §1

[7] = test system: NCI-H1793
Outline: as §1

[8] = test system: EPLC-272H
Outline: as §1

[9] = test system: LU99A
Outline: as §1

[10] = test system: UMC-11
Outline: as §1

[11] = test system: NCI-H2170
Outline: as §1

[12] = test system: NCI-H2009
Outline: as §1

[13] = test system: HCC-78
Outline: as §1

[14] = test system: SK-LU-1
Outline: as §1

[15] = test system: COR-L 105
Outline: as §1

[16] = test system: A-427
Outline: as §1

[17] = test system: LXF-289
Outline: as §1

[18] = test system: HOP-62
Outline: as §1

[19] = test system: NCI-H1915
Outline: as §1

[20] = test system: HCC-366
Outline: as §1

[21] = test system: NCI-H358
Outline: as §1

Nc1ccn([C@@H]2O[C@H](CO)[C@@H](O)[C@@H]2O)c(=O)n1 [Cytarabine] + CS(=O)(=O)CCNCc1ccc(-c2ccc3ncnc(Nc4ccc(OCc5cccc(F)c5)c(Cl)c4)c3c2)o1 [Lapatinib] (partner 2 µM)
relative viability ([1]; first compound 0.005 µM): 0.735
relative viability ([1]; first compound 0.01581 µM): 0.725
relative viability ([1]; first compound 0.05 µM): 0.666
relative viability ([1]; first compound 0.1581 µM): 0.622
relative viability ([1]; first compound 0.5 µM): 0.374
relative viability ([2]; first compound 0.005 µM): 0.878
relative viability ([2]; first compound 0.01581 µM): 0.874
relative viability ([2]; first compound 0.05 µM): 0.366
relative viability ([2]; first compound 0.1581 µM): 0.548
relative viability ([2]; first compound 0.5 µM): 0.47
relative viability ([3]; first compound 0.005 µM): 0.455
relative viability ([3]; first compound 0.01581 µM): 0.549
relative viability ([3]; first compound 0.05 µM): 0.378
relative viability ([3]; first compound 0.1581 µM): 0.308
relative viability ([3]; first compound 0.5 µM): 0.262
relative viability ([4]; first compound 0.005 µM): 0.603
relative viability ([4]; first compound 0.01581 µM): 0.336
relative viability ([4]; first compound 0.05 µM): 0.318
relative viability ([4]; first compound 0.1581 µM): 0.177
relative viability ([4]; first compound 0.5 µM): 0.153
relative viability ([5]; first compound 0.005 µM): 0.878
relative viability ([5]; first compound 0.01581 µM): 0.868
relative viability ([5]; first compound 0.05 µM): 0.926
relative viability ([5]; first compound 0.1581 µM): 0.26
relative viability ([5]; first compound 0.5 µM): 0.192
relative viability ([6]; first compound 0.005 µM): 0.333
relative viability ([6]; first compound 0.01581 µM): 1.1
relative viability ([6]; first compound 0.05 µM): 0.4
relative viability ([6]; first compound 0.1581 µM): 0.0338
relative viability ([6]; first compound 0.5 µM): 0.0305
relative viability ([7]; first compound 0.005 µM): 0.846
relative viability ([7]; first compound 0.01581 µM): 0.478
relative viability ([7]; first compound 0.05 µM): 0.656
relative viability ([7]; first compound 0.1581 µM): 0.451
relative viability ([7]; first compound 0.5 µM): 0.338
relative viability ([8]; first compound 0.005 µM): 0.717
relative viability ([8]; first compound 0.01581 µM): 0.756
relative viability ([8]; first compound 0.05 µM): 0.592
relative viability ([8]; first compound 0.1581 µM): 0.315
relative viability ([8]; first compound 0.5 µM): 0.417
relative viability ([9]; first compound 0.005 µM): 0.974
relative viability ([9]; first compound 0.01581 µM): 0.968
relative viability ([9]; first compound 0.05 µM): 1.02
relative viability ([9]; first compound 0.1581 µM): 0.988
relative viability ([9]; first compound 0.5 µM): 0.938
relative viability ([10]; first compound 0.005 µM): 0.632
relative viability ([10]; first compound 0.01581 µM): 0.462
relative viability ([10]; first compound 0.05 µM): 0.434
relative viability ([10]; first compound 0.1581 µM): 0.193
relative viability ([10]; first compound 0.5 µM): 0.211
relative viability ([11]; first compound 0.01581 µM): 0.233
relative viability ([11]; first compound 0.05 µM): 0.231
relative viability ([11]; first compound 0.1581 µM): 0.19
relative viability ([11]; first compound 0.5 µM): 0.182
relative viability ([12]; first compound 0.005 µM): 0.992
relative viability ([12]; first compound 0.01581 µM): 0.878
relative viability ([12]; first compound 0.05 µM): 0.444
relative viability ([12]; first compound 0.1581 µM): 0.694
relative viability ([12]; first compound 0.5 µM): 0.349
relative viability ([13]; first compound 0.005 µM): 0.799
relative viability ([13]; first compound 0.01581 µM): 0.595
relative viability ([13]; first compound 0.05 µM): 0.353
relative viability ([13]; first compound 0.1581 µM): 0.308
relative viability ([13]; first compound 0.5 µM): 0.19
relative viability ([14]; first compound 0.005 µM): 0.659
relative viability ([14]; first compound 0.01581 µM): 0.744
relative viability ([14]; first compound 0.05 µM): 0.697
relative viability ([14]; first compound 0.1581 µM): 0.345
relative viability ([14]; first compound 0.5 µM): 0.467
relative viability ([15]; first compound 0.005 µM): 0.299
relative viability ([15]; first compound 0.01581 µM): 0.328
relative viability ([15]; first compound 0.05 µM): 0.297
relative viability ([15]; first compound 0.1581 µM): 0.293
relative viability ([15]; first compound 0.5 µM): 0.252
relative viability ([16]; first compound 0.005 µM): 0.93
relative viability ([16]; first compound 0.01581 µM): 0.565
relative viability ([16]; first compound 0.05 µM): 0.274
relative viability ([16]; first compound 0.1581 µM): 0.184
relative viability ([16]; first compound 0.5 µM): 0.183
relative viability ([17]; first compound 0.005 µM): 0.806
relative viability ([17]; first compound 0.01581 µM): 0.851
relative viability ([17]; first compound 0.05 µM): 0.809
relative viability ([17]; first compound 0.1581 µM): 0.429
relative viability ([17]; first compound 0.5 µM): 0.339
relative viability ([18]; first compound 0.005 µM): 0.825
relative viability ([18]; first compound 0.01581 µM): 0.821
relative viability ([18]; first compound 0.05 µM): 0.385
relative viability ([18]; first compound 0.1581 µM): 0.134
relative viability ([18]; first compound 0.5 µM): 0.0735
relative viability ([19]; first compound 0.005 µM): 0.868
relative viability ([19]; first compound 0.01581 µM): 0.955
relative viability ([19]; first compound 0.05 µM): 0.848
relative viability ([19]; first compound 0.1581 µM): 0.393
relative viability ([19]; first compound 0.5 µM): 0.257
relative viability ([20]; first compound 0.005 µM): 1.16
relative viability ([20]; first compound 0.01581 µM): 0.85
relative viability ([20]; first compound 0.05 µM): 1.05
relative viability ([20]; first compound 0.1581 µM): 0.0753
relative viability ([20]; first compound 0.5 µM): 0.0431
relative viability ([21]; first compound 0.005 µM): 0.471
relative viability ([21]; first compound 0.01581 µM): 0.332
relative viability ([21]; first compound 0.05 µM): 0.364
relative viability ([21]; first compound 0.1581 µM): 0.199
relative viability ([21]; first compound 0.5 µM): 0.176
